Results published in ChEMBL document CHEMBL1201862, “PubChem BioAssay data set” (2004).
One block for each molecule: values may come before it. Active and inactive are the calls of the source.

Experiments:
[1] = P. falciparum Dd2 growth inhibitors, dose response, SYBR Green, cherry-picked samples (AID 1159567); format: functional, cell-based
[2] = viability loss in THP-1 monocytes – THP-1 cells, cytotoxicity control for Vif-APOBEC3G degradation inhibitor project, dose response (AID 1117359); format: functional; details: THP-1
Paired box protein Pax-8 = Paired box protein Pax-8 (Homo sapiens, UniProt Q06710); test: PAX8 transcriptional activity inhibition in RMG-I – RMG-I cells, luciferase, cherry-pick, dose response (AID 687027); format: functional, cell-based;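 also: luciferase reporter driven by Pax8 target thyroperoxidase promoter measured by SteadyGlo luminescence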
Sequence of Paired box protein Pax-8 (Q06710 whole entry): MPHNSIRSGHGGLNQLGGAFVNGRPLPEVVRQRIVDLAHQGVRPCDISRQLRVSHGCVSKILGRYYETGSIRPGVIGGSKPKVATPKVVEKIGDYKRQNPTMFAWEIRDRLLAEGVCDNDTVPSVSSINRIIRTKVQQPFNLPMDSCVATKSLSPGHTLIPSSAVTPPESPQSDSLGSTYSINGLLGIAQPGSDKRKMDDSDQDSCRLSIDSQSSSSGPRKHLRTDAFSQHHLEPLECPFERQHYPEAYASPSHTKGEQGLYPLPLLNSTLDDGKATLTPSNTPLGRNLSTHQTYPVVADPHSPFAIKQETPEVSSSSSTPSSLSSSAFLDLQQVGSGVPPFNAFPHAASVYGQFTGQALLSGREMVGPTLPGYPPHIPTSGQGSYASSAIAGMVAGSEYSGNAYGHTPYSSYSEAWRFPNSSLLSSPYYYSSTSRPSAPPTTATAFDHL

[3] = general cell-killing toxicity readout – plate reader, dry powder samples, cytotoxicity control for PAX8 inhibitor project, dose response (AID 743021); format: functional, cell-based
[4] = molecular target: T1, Corticotropin-releasing factor receptor 2/Corticotropin-releasing factor-binding protein (Homo sapiens, UniProt P24387+Q13324); test: Dose Response confirmation of uHTS hits for small molecule antagonists of the CRF-binding protein and CRF-R2 receptor complex.; format: functional; details: read-out: IC50_Mean
T1 sequence (Q13324 whole entry): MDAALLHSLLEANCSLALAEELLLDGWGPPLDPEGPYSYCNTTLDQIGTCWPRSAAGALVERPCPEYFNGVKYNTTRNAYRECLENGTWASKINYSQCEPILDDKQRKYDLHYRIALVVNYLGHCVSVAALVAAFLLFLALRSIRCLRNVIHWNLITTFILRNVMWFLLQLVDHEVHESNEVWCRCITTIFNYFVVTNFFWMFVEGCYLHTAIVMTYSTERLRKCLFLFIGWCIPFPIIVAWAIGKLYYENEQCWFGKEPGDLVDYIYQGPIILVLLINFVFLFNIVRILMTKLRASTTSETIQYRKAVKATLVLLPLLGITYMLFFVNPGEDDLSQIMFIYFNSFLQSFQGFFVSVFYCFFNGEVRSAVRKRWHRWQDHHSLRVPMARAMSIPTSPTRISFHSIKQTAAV
T1 sequence (P24387 whole entry): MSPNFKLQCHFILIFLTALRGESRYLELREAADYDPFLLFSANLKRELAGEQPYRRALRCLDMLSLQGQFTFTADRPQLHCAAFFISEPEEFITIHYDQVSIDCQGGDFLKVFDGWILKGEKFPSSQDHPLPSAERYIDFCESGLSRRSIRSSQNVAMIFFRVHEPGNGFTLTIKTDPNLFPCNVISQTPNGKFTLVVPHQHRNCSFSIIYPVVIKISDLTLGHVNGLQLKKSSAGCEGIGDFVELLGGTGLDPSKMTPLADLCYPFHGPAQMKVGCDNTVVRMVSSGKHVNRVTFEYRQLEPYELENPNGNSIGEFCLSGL

[5] = molecular target: T1, Corticotropin-releasing factor receptor 2/Corticotropin-releasing factor-binding protein; test: activators of CRF receptor 2 with binding protein – uHTS hits, confirmation (AID 602473); format: functional; details: read-out: EC50_Mean
[6] = blockers of CRF-binding protein–CRF-R2 complex – cell-based, uHTS hits, 384-well, dose response (AID 651639); format: functional, Homo sapiens; details: read-out: IC50_Mean
[7] = OVCAR-3 cell viability loss – plate reader, dry powder samples, PAX8 inhibitor project, dose response (AID 743044); format: functional, cell-based
[8] = OVCAR8 cell viability loss – plate reader, dry powder samples, PAX8 project, dose response (AID 743197); format: functional, cell-based; details: OVCAR-8
[9] = off-target signal loss in HeLa-CEM21 co-culture – HeLa F-luc CTL cells, cherry-picked, counter-screen for HIV-1 Env fusion inhibitor project, dose response (AID 652040); format: functional, cell-based;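 also: potency for signal decrease marking cytotoxic or nonspecific inhibition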
[10] = HIV-1 AD8 envelope cell-cell fusion blockers – cherry-pick, dose response (AID 652062); format: functional, cell-based;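 also: luciferase signal from cell-cell fusion driven by HIV-1 clade B AD8 Env; potency is for inhibitors of fusion seen as a drop in luminescence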
[11] = HIV-1 Vif–A3G interaction blockers – biochemical, TR-FRET, GST-Vif 1-94, biotin-A3G peptide, dose response retest, primary screen (AID 1117319); format: functional;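 also: TR-FRET signal of purified GST-Vif binding a biotinylated A3G peptide; inhibitors lower the FRET signal by blocking Vif and A3G binding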
[12] = molecular target: T2, Acyl-homoserine lactone acylase PvdQ (Pseudomonas aeruginosa (strain LESB58), UniProt Q9I194); test: PvdQ acylase enzyme activity blockers – biochemical, fluorescence, plate reader and imaging, cherry-picks, dose response (AID 493231)
T2 sequence (Q9I194 whole entry): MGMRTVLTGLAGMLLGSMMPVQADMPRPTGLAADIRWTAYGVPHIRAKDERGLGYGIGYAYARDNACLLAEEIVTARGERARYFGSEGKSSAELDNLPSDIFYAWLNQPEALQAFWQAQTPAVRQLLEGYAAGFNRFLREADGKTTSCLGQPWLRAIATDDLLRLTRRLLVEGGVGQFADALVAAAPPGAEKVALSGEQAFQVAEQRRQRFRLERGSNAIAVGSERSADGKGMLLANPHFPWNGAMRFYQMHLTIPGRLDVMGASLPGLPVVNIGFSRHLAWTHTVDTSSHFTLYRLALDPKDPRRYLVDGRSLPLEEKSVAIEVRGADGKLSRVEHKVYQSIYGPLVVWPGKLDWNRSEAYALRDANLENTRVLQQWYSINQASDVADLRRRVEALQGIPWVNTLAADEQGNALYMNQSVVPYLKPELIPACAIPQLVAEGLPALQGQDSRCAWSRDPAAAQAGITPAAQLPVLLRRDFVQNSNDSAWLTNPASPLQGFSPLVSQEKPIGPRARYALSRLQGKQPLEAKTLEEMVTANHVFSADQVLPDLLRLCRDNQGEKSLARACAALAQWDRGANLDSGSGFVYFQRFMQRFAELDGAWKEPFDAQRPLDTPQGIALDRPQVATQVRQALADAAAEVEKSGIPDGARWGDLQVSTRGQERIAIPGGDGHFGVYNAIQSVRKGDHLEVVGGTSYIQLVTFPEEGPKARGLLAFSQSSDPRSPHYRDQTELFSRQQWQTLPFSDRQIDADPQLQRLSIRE

[13] = molecular target: Luciferin 4-monooxygenase (Photinus pyralis, UniProt P08659); test: inhibition of purified Photinus pyralis luciferase – biochemical, luminescence, dose response (AID 1891)
Sequence of Luciferin 4-monooxygenase (P08659 whole entry): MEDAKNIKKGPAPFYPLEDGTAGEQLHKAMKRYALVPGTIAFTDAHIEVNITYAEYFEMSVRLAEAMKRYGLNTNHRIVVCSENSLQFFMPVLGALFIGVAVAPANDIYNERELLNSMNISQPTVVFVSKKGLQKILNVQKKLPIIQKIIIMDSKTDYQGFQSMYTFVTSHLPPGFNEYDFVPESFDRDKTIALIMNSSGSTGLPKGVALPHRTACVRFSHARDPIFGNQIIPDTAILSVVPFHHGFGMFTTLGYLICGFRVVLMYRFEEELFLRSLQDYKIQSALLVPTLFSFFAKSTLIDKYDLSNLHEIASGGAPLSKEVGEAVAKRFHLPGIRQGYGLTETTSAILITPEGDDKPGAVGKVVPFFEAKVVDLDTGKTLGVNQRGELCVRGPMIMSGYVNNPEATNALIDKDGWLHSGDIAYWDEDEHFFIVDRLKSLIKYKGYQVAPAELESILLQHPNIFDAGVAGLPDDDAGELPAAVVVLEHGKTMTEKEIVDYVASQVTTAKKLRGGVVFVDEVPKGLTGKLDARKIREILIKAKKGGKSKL

[14] = Luminescence Cell-Based Dose Confirmation HTS to Identify Inhibitors of Platelet Dense Granule Release. [Related pubchem assays: 1663 (Primary HTS), 1678 (Summary of Project)]; format: functional
[15] = blockers of HIV-1 envelope-mediated cell-cell fusion – cherry-pick, dose response (AID 652057); format: functional, cell-based
[16] = viability loss in CEM21 cells – cell-based, CellTiter-Glo luminescence, cherry-picked, cytotoxicity control for viral fusion inhibitor project, dose response (AID 652042); format: functional;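 also: potency for signal decrease meaning cytotoxicity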
[17] = blockers of HIV-1 ZM109 envelope-driven cell-cell fusion – HeLa effector, CEM target cells, luciferase, cherry-pick, dose response (AID 652058); format: functional, cell-based;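 also: luciferase signal from HIV-1 Env mediated cell-cell fusion of effector and target cells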

Structure (SMILES): C[C@H](CO)N1C[C@H](C)[C@H](CN(C)S(=O)(=O)c2ccccc2)Oc2cc(C#Cc3ccncc3)ccc2S1(=O)=O
- AC50 [1]: 6.63 µM (active)

Structure (SMILES): O=C(c1cnccn1)N1CC(=O)N2[C@@H](CO)[C@@H](c3ccc(C#CCc4ccccc4)cc3)[C@@H]2C1
- AC50 [1]: 15.7 µM (active)

Structure (SMILES): O=C(CSc1nnnn1-c1ccc2c(c1)CCC2)Nc1ccc2c(c1)OCCO2
- CC50 [2]: > 40 µM (active)

Structure (SMILES): COC(=O)C1=C(SC)N(c2ccccc2)C(c2ccccc2)CC1=O (stereo unspecified)
- AC50 (Paired box protein Pax-8): 54.1 µM (active)
- AC50 [3]: 62 µM (active)

- IC50 [4]: 3.26 µM (active)
- EC50 [5]: > 53 µM (inactive)
- IC50 [6]: > 20 µM (inactive)
Structure (SMILES): CCN(CC)S(=O)(=O)c1ccc(Cl)c(NC(=O)c2cc(Cl)cc(Cl)c2)c1

- IC50 [4]: 12 µM (active)
- EC50 [5]: > 53 µM (inactive)
- IC50 [6]: 14.5 µM (active)
Structure (SMILES): COc1ccc([N+](=O)[O-])cc1NCc1ccccc1

Structure (SMILES): O=S(=O)(c1ccccc1)N1CC[C@@H]2[C@H](CO)Nc3ccc(C#CC4CCCCC4)cc3[C@@H]21
- AC50 [1]: 6.42 µM (active)

Structure (SMILES): C[C@@H]1CN([C@H](C)CO)C(=O)c2cc(NC(=O)Nc3ccc(F)cc3)ccc2O[C@@H](C)CCCCO[C@@H]1CN(C)Cc1ccc(Cl)c(Cl)c1
- AC50 (Paired box protein Pax-8): 8.1 µM (active)
- AC50 [7]: 20 µM (active)
- AC50 [8]: 38.7 µM (active)

Structure (SMILES): Cc1nc2ccccc2n1CC(=O)NCc1ccccc1
- AC50 [9]: > 70 µM (inactive)
- AC50 [10]: 16.8 µM (active)

- IC50 [11]: > 100 µM (active)
Structure (SMILES): COc1ccc(-c2[nH]c(-c3ccc(C)cc3)nc2SCC(=O)NCc2ccco2)cc1OC

Structure (SMILES): CC(C)Oc1ccc(Nc2ncnc3ccccc23)cc1
- AC50 [12]: 16.3 µM (active)

- IC50 [11]: > 100 µM (active)
Structure (SMILES): O=C1c2ccccc2C(Nc2ccc(F)c(Cl)c2)N1c1ccccn1 (stereo unspecified)

Structure (SMILES): Clc1ccc2scc(CN3CCCCC3)c2c1
- AC50 [12]: 9.4 µM (active)

Structure (SMILES): O=C(NC(=O)c1ccccc1)Nc1ccccn1
- EC50 [13]: 4.17 µM (active)
- EC50 [14]: 2.1 µM (active)
- AC50 [15]: 2.44 µM (active)
- AC50 [16]: 39.1 µM (active)
- AC50 [17]: 37.7 µM (active)
- AC50 [9]: 9.35 µM (active)
- AC50 [10]: 6.09 µM (active)

- IC50 [4]: 5.83 µM (active)
- EC50 [5]: > 53 µM (inactive)
- IC50 [6]: > 20 µM (inactive)
Structure (SMILES): CC(=O)N(C(C)=O)c1cccc(N(Cc2ccccc2)Cc2ccccc2)c1
